A short description of this series: Chemical stability of liposomal BPD-MA: potency, degradation products and pH of the reconstituted solution on storage. In kind it is physicochemical. The conditions noted are these: cryodesiccated liposome formulation. How it is done:
The chemical stability of the constituted dosage form was followed by monitoring the potency, degradation products and pH of the reconstituted solution. The potency of the reconstituted parenteral dosage form was assessed by chromatography with potency calculated on as is basis.

Turning to “benzoporphyrin derivative monoacid [BPD-MA]”, the projected shelf life result was “at least two years”. The “period over which potency was maintained” value (room temperature) is on record as “at least nine months”.
